Activity calls are given as the source filed them.
Assays:
[1] = blockers of bursicon-stimulated LGR2 cAMP reporter – cell-based, HEK293, CRE-luciferase reporter, cherry pick, set 2, dose response (AID 743343); assay type: functional;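 further: transfected cells were stimulated with diluted bursicon conditioned medium after compound addition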
[2] = blockade of melanocortin 4 receptor signaling – cell-based, plate reader, cherry pick, counter-screen for LGR2 antagonist project, dose response (AID 743444); assay type: functional;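 further: transfected HEK 293 cells stimulated with alpha-MSH peptide; potency of inhibitors of the alpha-MSH evoked signal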
[3] = target: T1, Nuclear receptor subfamily 0 group B member 1 (Homo sapiens, UniProt P51843); assay type: functional, cell-based;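 further: HEK293T cells transfected with SF-1 and DAX-1 plus StAR promoter luciferase reporter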
T1 sequence (P51843 whole entry): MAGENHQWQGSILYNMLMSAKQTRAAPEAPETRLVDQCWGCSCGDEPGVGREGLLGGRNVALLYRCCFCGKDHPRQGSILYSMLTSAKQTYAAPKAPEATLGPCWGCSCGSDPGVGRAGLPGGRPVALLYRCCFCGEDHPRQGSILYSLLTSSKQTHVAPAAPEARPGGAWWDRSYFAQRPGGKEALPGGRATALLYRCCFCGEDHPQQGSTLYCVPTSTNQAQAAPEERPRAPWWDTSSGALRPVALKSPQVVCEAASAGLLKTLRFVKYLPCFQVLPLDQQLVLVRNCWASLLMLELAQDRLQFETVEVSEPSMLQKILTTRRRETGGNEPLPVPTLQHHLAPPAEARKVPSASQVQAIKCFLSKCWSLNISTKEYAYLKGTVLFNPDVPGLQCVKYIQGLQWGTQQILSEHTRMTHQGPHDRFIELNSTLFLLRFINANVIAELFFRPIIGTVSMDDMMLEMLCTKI

cells [4] = assay type: functional, cell-based
[5] = Luminescence Cell-Based Dose Response HTS to Identify Inhibitors of 5'UTR Stem-Loop Driven Prion Protein mRNA Translation in H4 Neuroglioblastoma Cells. [Related pubchem assays: 1827 (Project Summary), 1813 (Primary HTS)]; assay type: functional
[6] = target: Nuclear receptor subfamily 5 group A member 2 (Homo sapiens, UniProt O00482); assay type: functional, cell-based;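 further: HEK293T cells transfected with LRH-1 and a StAR promoter luciferase reporter; potency for inhibitors that lower LRH-1 driven reporter light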
Chain of Nuclear receptor subfamily 5 group A member 2 (O00482 whole entry): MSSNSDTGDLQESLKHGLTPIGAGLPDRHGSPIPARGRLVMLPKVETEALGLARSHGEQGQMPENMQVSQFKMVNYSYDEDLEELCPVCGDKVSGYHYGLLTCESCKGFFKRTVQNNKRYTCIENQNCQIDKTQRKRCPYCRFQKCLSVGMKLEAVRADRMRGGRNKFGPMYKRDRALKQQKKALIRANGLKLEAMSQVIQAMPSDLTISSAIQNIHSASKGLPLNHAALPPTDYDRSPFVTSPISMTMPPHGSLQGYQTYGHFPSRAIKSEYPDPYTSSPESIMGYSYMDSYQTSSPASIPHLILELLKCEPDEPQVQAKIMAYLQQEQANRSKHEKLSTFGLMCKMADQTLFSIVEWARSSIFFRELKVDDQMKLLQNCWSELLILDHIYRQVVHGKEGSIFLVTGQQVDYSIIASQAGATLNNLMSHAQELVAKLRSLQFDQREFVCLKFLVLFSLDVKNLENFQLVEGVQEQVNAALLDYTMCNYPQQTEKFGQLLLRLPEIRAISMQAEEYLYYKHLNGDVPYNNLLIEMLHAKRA

[7] = nonselective StAR promoter luciferase inhibitors – cell-based, luminescence, luciferase reporter, counter-screen for LRH-1 inverse agonist project, dose response (AID 651969); assay type: functional
Steroidogenic factor 1 = Steroidogenic factor 1 (Homo sapiens, UniProt Q13285); assay: Counterscreen for inverse agonists of the liver receptor homolog-1 (LRH-1; NR5A2): Luminescence-based cell-based high throughput dose response assay to identify inverse agonists of the Steroidogenic Factor 1 Nuclear Receptor (SF1; NR5A1).; assay type: functional
Chain of Steroidogenic factor 1 (Q13285 whole entry): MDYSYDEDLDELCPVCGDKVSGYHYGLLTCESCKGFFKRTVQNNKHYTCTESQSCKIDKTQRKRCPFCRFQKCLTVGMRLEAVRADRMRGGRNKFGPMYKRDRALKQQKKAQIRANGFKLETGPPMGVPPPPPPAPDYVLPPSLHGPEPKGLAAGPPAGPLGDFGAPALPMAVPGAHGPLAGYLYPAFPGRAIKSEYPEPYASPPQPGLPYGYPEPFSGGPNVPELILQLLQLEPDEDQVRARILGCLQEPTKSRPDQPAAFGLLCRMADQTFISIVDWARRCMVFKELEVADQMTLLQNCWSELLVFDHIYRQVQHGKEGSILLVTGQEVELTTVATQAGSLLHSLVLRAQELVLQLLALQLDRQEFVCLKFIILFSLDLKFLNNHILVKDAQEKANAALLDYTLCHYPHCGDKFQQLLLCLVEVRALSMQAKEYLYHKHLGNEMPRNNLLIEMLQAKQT

[8] = NIH3T3 cell viability loss – ATP luminescence, mouse fibroblasts, counter-screen, dose response (AID 2010); assay type: functional, cell-based;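 further: cells exposed to compound for about 90 hours before reading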
[9] = Trypanosoma cruzi growth suppression in host cells – NIH3T3 host cells, beta-gal luminescence, confirmation (AID 2044); assay type: functional, cell-based;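 further: intracellular parasites grown in NIH/3T3 mouse fibroblasts as host cells; luminescent beta-galactosidase reporter signal from transgenic T. cruzi replicating inside host cells; inhibitors lower the luminescence signal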
[10] = Counterscreen for activators of the function of SWI/SNF related, matrix associated, actin dependent regulator of chromatin, subfamily a, member 2 (SMARCA2, BRM): Luminescence-based cell-based high throughput dose response assay to identify non-selective compounds using the VP16 reporter assay.; assay type: functional
[11] = target: SWI/SNF-related matrix-associated actin-dependent regulator of chromatin subfamily A member 2 (Homo sapiens, UniProt P51531); assay: Luminescence-based cell-based high throughput dose response assay to identify activators of the function of SWI/SNF related, matrix associated, actin dependent regulator of chromatin, subfamily a, member 2 (SMARCA2, BRM).; assay type: functional
Chain of SWI/SNF-related matrix-associated actin-dependent regulator of chromatin subfamily A member 2 (P51531 whole entry): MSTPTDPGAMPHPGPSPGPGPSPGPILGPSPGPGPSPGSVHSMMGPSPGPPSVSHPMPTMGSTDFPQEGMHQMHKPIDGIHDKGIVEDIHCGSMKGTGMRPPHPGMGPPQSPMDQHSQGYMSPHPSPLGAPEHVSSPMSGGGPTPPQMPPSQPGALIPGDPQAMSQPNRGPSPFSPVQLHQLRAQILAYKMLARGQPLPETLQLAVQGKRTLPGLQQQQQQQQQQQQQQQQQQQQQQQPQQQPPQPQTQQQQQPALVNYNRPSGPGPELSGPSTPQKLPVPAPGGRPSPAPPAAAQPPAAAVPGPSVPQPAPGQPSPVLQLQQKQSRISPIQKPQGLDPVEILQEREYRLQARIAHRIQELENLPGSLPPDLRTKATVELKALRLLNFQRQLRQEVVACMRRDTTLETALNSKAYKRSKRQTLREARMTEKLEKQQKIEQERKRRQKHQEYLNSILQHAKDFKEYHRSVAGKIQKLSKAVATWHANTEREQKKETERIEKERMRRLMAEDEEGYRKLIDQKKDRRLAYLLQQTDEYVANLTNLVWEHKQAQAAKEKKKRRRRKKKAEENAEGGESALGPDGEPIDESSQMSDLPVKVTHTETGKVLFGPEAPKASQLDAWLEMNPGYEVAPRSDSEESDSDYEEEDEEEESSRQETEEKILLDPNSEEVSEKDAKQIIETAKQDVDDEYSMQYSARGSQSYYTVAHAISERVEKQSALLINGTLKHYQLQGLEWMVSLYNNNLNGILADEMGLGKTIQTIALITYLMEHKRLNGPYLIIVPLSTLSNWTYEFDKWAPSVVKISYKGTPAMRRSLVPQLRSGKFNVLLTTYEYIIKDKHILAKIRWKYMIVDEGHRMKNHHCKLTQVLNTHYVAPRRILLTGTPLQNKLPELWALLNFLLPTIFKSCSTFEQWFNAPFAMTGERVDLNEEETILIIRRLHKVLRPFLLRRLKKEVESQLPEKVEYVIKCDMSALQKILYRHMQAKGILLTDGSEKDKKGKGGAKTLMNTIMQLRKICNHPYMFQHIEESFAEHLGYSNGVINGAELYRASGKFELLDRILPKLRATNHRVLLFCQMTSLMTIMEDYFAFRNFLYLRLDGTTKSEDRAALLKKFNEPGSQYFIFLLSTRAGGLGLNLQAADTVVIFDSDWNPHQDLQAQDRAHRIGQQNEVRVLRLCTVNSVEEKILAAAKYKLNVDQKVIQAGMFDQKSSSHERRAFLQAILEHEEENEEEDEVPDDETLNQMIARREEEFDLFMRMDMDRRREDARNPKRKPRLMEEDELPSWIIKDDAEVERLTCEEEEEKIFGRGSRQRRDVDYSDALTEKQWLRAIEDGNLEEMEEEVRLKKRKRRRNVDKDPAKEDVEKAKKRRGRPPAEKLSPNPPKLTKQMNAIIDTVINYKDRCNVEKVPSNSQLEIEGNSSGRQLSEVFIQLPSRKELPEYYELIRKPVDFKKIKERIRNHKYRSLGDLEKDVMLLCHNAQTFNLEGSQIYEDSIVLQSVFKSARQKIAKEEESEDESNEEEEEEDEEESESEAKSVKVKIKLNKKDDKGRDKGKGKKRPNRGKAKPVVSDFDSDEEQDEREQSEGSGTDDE

Protein Wnt-3a = Protein Wnt-3a (Mus musculus, UniProt P27467); assay: antagonism of Wnt3a pathway luciferase reporter – Wnt-LIGHT cells, luminescence, selectivity assay for Gli-SUFU antagonist project, dose response (AID 651570); assay type: functional; conditions: read-out: IC50_Mean;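 further: Wnt-LIGHT reporter cells stimulated with conditioned medium from Wnt3a-producing cells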
Chain of Protein Wnt-3a (P27467 whole entry): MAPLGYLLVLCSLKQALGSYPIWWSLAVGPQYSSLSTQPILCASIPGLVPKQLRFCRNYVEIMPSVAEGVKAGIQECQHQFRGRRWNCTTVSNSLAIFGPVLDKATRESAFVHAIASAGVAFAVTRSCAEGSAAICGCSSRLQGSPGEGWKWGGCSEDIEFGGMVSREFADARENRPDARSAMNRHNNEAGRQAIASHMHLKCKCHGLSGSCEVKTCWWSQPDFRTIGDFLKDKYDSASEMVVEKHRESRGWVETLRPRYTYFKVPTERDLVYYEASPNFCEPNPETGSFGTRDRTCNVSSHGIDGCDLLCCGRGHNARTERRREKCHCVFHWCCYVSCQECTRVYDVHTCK

INS1 = assay: INS-1E survival protection against cytokine death – cell-based, luminescence, retest, dose response (AID 449756); assay type: functional; conditions: Rattus norvegicus;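 further: cell death triggered by IL-1 beta plus TNF-alpha plus IFN-gamma mixture; protective hits raise ATP signal compared with cytokine alone wells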
[12] = reduction of Shn3 3'UTR-driven luciferase in osteoblasts – cell-based, Clone20 osteoblasts, firefly luciferase, cherry-picked, dose response (AID 624132); assay type: functional;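 further: firefly luciferase luminescence from reporter carrying the Shn3 3'UTR in osteoblasts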
[13] = non-specific 3'UTR reporter inhibition in Clone20-Shn3RL – cell-based, Renilla luciferase, cherry-picked, counter-screen for Shn3 inhibitor project, dose response (AID 624133); assay type: functional
[14] = loss of viability in HepG2 cells – cell-based, CellTiter-Glo, cherry-picked, cytotoxicity control for Shn3 inhibitor project, dose response (AID 624134); assay type: functional
[15] = MIN6 cell viability loss – mouse insulinoma, cytotoxicity control, dose response (AID 2122); assay type: functional;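 further: confirmatory high-throughput counterscreen run to flag cytotoxic compounds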
[16] = decrease of insulin promoter-GFP reporter – imaging, high-content screening, mouse beta cells (AID 1628); assay type: functional; conditions: MIN6
Galanin receptor type 3 = Galanin receptor type 3 (Homo sapiens, UniProt O60755); assay: Fluorescence-based cell-based primary high throughput dose response assay to identify antagonists of the Galanin Receptor 3 (GalR3).; assay type: functional
cells [17] = assay type: functional, cell-based; conditions: HEK-CNG
[18] = target: Eukaryotic translation initiation factor 4E (Mus musculus, UniProt P63073); assay: blockers of eIF4G binding by eIF4E – biochemical, TR-FRET, dose response (AID 855); assay type: functional;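 further: potency for disrupting eIF4E binding to eIF4GI seen as loss of FRET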
Genome polyprotein = Genome polyprotein (dengue virus type 2, UniProt P29990); assay: flavivirus cap methylation enzyme inhibition – biochemical, confirmation dose response, primary screen (AID 588689); assay type: functional
Chain of Genome polyprotein (P29990 2492-3391 limits assumed): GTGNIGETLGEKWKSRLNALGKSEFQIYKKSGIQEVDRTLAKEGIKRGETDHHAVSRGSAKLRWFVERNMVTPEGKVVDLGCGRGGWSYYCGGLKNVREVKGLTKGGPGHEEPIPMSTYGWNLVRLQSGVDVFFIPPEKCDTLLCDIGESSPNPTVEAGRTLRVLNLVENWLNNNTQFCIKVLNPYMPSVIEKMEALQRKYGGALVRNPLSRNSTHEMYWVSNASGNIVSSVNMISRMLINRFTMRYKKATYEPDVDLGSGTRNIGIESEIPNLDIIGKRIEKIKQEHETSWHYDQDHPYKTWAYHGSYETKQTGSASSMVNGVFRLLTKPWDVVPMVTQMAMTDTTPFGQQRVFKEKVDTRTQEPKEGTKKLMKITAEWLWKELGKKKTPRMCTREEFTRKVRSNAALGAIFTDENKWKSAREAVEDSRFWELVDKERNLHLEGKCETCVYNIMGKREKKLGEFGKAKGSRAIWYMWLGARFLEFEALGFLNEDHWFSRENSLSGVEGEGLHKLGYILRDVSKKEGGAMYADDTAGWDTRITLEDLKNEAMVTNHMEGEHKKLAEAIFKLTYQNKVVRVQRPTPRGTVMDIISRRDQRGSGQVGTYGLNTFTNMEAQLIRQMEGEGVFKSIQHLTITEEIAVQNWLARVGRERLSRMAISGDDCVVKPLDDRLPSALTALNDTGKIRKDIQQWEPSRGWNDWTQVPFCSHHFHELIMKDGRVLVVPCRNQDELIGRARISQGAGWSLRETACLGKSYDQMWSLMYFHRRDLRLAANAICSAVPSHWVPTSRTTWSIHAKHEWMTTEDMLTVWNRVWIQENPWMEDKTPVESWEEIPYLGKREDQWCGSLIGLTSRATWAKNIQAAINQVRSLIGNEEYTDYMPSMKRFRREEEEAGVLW

Nonstructural protein 1 = Nonstructural protein 1 (Influenza A virus, UniProt Q194T2); assay type: functional, Influenza A virus (A/California/07/2009(H1N1))
Chain of Nonstructural protein 1 (Q194T2 whole entry): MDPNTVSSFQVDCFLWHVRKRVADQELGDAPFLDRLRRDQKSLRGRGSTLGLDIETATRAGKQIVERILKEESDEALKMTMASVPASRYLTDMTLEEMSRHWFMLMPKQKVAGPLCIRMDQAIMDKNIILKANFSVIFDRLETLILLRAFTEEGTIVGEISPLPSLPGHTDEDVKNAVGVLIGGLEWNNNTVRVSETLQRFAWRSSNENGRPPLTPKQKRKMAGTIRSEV

[19] = target: T2, Apoptotic protease-activating factor 1 (Homo sapiens, UniProt O14727); assay type: functional
T2 sequence (O14727 whole entry): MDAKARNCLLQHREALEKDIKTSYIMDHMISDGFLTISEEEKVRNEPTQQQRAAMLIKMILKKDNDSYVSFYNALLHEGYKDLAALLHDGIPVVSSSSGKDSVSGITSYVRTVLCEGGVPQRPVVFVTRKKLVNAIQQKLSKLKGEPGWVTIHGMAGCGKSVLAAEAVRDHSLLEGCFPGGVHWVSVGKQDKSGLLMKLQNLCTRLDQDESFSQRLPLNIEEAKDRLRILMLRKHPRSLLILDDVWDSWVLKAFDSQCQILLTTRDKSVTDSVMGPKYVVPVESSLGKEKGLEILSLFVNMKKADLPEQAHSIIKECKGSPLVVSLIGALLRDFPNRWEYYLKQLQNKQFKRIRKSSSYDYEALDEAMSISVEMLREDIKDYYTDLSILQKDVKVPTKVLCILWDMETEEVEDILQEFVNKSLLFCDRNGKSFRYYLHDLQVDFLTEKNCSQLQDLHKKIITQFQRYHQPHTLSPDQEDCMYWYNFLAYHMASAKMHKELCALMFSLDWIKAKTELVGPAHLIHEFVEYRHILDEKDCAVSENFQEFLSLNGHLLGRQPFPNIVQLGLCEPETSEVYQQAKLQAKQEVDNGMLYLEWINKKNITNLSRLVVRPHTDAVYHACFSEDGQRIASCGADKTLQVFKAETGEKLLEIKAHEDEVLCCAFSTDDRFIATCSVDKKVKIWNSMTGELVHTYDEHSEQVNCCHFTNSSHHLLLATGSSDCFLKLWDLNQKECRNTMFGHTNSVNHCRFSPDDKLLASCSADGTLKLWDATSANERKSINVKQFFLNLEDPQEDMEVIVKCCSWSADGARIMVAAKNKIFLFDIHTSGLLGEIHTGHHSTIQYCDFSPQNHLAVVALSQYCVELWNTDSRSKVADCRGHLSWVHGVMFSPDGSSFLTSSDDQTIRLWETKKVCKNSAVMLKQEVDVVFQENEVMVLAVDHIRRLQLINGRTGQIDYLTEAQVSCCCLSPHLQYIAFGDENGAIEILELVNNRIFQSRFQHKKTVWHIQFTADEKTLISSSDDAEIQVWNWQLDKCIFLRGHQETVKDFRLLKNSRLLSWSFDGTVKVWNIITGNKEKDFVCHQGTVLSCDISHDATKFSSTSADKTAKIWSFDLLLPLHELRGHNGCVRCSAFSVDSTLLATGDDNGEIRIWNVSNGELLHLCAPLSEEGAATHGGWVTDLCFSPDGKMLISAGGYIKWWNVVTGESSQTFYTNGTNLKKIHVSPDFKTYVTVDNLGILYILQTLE

[20] = target: T3, Mannose-6-phosphate isomerase (Homo sapiens, UniProt P34949); assay: MPI inhibition at elevated mannose 6-phosphate – biochemical, fluorescence intensity, high mannose 6-phosphate, primary screen (AID 1220)
T3 sequence (P34949 whole entry): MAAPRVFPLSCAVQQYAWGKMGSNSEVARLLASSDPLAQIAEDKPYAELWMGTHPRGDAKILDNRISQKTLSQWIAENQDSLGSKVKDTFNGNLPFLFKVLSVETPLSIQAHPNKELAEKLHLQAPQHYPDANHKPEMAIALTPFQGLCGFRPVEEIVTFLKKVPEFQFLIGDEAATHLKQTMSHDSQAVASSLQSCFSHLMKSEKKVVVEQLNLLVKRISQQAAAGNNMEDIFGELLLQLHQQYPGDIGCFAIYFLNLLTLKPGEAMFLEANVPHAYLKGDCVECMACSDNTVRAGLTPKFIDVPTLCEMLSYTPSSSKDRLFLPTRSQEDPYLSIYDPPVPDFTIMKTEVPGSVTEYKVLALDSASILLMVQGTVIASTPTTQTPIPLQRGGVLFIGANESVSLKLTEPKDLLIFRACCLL

[21] = target: Induced myeloid leukemia cell differentiation protein Mcl-1 (Homo sapiens, UniProt Q07820); assay type: functional
Chain of Induced myeloid leukemia cell differentiation protein Mcl-1 (Q07820 whole entry): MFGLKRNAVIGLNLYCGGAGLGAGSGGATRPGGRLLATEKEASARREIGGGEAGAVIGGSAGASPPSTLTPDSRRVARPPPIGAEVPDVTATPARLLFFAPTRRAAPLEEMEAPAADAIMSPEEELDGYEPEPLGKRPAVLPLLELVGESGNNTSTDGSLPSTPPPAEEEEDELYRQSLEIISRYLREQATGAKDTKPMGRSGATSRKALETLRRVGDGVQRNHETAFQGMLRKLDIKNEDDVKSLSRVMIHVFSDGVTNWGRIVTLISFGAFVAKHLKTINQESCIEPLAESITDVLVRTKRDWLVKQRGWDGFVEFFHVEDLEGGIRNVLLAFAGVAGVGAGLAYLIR

[22] = target: Glucose-6-phosphate 1-dehydrogenase (Homo sapiens, UniProt P11413); assay: inhibition of Homo sapiens G6PD, dose series – biochemical, fluorescence, selectivity assay for P. falciparum G6PD inhibitor project, dose response (AID 504792); assay type: functional
Chain of Glucose-6-phosphate 1-dehydrogenase (P11413 whole entry): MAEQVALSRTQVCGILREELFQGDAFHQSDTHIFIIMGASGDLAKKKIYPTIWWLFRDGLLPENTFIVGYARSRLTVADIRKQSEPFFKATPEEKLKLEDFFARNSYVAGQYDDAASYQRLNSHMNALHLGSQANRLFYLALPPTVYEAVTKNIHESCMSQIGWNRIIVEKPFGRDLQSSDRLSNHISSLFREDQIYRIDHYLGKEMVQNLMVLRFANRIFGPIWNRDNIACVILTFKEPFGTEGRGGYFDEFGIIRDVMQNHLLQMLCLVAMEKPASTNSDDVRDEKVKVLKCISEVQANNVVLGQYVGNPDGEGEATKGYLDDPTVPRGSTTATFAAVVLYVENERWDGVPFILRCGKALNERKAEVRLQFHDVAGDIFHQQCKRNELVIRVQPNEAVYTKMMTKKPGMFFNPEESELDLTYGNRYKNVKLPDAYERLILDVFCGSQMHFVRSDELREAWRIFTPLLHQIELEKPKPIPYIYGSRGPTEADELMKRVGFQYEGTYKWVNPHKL

Vero = assay: viability of Vero cells under compound – cytotoxicity control for flavivirus capping enzyme inhibitors (AID 588742); assay type: functional; conditions: Chlorocebus sabaeus
[23] = rise of 2N DNA cells, HeLa – IC50, dose response (AID 1117349); assay type: functional, cell-based
[24] = luciferase reporter signal suppression in cells – H4 neuroglioma cells, luminescence, dose response (AID 1990); assay type: functional, cell-based
cells [25] = assay type: functional, cell-based; remark: listed apart in the source
[26] = HEK-293T viability loss after treatment – luminescence, T-cell screen hits, cytotoxicity control for TCR NF-kB inhibitor project, dose response (AID 489026); assay type: functional, cell-based;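 further: cells exposed to compound about 14 hours before the viability readout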
Paired box protein Pax-8 = Paired box protein Pax-8 (Homo sapiens, UniProt Q06710); assay: PAX8 transcriptional activity inhibition in RMG-I – RMG-I cells, luciferase, cherry-pick, dose response (AID 687027); assay type: functional, cell-based;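 further: luciferase reporter driven by Pax8 target thyroperoxidase promoter measured by SteadyGlo luminescence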
[27] = alpha-synuclein stem-loop translation blockers – luminescence, H4 neuroglioblastoma cells, dose confirmation, confirmation (AID 2454); assay type: functional, cell-based;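 further: H4 neuroglioblastoma cells carrying an alpha-synuclein 5'UTR luciferase reporter; potency for inhibition of the luciferase signal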
[28] = luciferase reporter signal reduction – luminescence, H4-C neuroglioblastoma cells, dose response (AID 2458); assay type: functional, cell-based;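 further: H4 neuroglioblastoma cells stably carrying a luciferase reporter gene fusion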
[29] = rise of 4N DNA cells, HeLa – IC50, dose response (AID 1117351); assay type: functional, cell-based
[30] = alpha-synuclein stem-loop luciferase translation blockers – H4 neuroglioma cells, luminescence, confirmation (AID 1988); assay type: functional, cell-based

O=C(c1cc(-c2ccc(Cl)cc2Cl)on1)N1CCOCC1
AC50 [1]: 7.17 µM (active)
AC50 [2]: 7.28 µM (active)
IC50 [3]: > 67.5 µM (inactive)
IC50 (cells [4]): > 67.5 µM (inactive)
EC50 [5]: > 120 µM (not active)

COc1cccc(NC(=O)c2oc3ccccc3c2NC(=O)C2CC2)c1
IC50 [6]: 35.9 µM (inactive)
IC50 [7]: 35.9 µM (inactive)
IC50 (Steroidogenic factor 1): 16 µM (inactive)

Cc1cc(NCCN2CCOCC2)c2ccc3ccccc3c2n1
EC50 [8]: > 60 µM (not active)
EC50 [9]: 949 nM (active)
EC50 [10]: > 91.2 µM (inactive)
EC50 [11]: 25.3 µM (inactive)

CCn1c(C)nc2cc(-c3nnc(-c4c(-c5ccccc5)noc4C)o3)ccc21
IC50 (Protein Wnt-3a): 2.59 µM (active)
AC50 (INS1): 5.72 µM (active)
AC50 [12]: 5.82 µM (active)
AC50 [13]: 5.96 µM (active)

O=C(c1cc2sccc2n1Cc1ccccc1)N1CCN(c2nc3ccccc3s2)CC1
IC50 (Protein Wnt-3a): 2.68 µM (active)
AC50 (INS1): 3.56 µM (active)
AC50 [12]: 1.09 µM (active)
AC50 [14]: 2.92 µM (active)
AC50 [13]: 0.453 µM (active)
IC50 [15]: 779 nM (active)
IC50 [16]: 735 nM (active)

Cn1nc(C(C)(C)C)cc1C(=O)NCc1ccc2c(c1)OCO2
IC50 (Galanin receptor type 3): 1.83 µM (active)
AC50 (INS1): 3.31 µM (active)
EC50 (cells [17]): > 29.9 µM (inactive)
AC50 [12]: 1.17 µM (active)
AC50 [14]: 2.31 µM (active)
AC50 [13]: 1.02 µM (active)

CCOc1cc(CNc2ccc(N3CCCC3)cc2)cc(Cl)c1OC
IC50 [18]: > 64 µM (inactive)
IC50 (Genome polyprotein): 48.2 µM (active)
IC50 (Nonstructural protein 1): 20.7 µM (active)
IC50 [19]: > 100 µM (inactive)
IC50 [20]: 8.91 µM (active)
IC50 [21]: 2.43 µM (not active)
IC50 [22]: > 80 µM (inactive)
CC50 (Vero): > 40 µM (active)

CC1=CC(O)C(O)C2(C)C1CC1OC(=O)CC3C(C)C(O)C(=O)C2C13CO (stereo not drawn)
IC50 [6]: 6.91 µM (active)
IC50 [7]: 17.7 µM (inactive)
IC50 (Steroidogenic factor 1): 4.96 µM (active)

O=C(Cc1ccc(-c2ccccc2)cc1)Nc1ccccn1 [DIFENPIRAMIDE]
EC50 [10]: > 91.2 µM (inactive)
EC50 [11]: > 91.2 µM (inactive)

COc1cc([C@@H]2c3cc4c(cc3[C@H](O)[C@H]3COC(=O)[C@H]23)OCO4)cc(OC)c1OC [PODOFILOX]
IC50 [23]: 8.9 nM (active)
EC50 [24]: < 100 nM (active)
EC50 (cells [25]): 14 nM (active)
IC50 [26]: > 80 µM (inactive)
AC50 (Paired box protein Pax-8): < 260 nM (active)
EC50 [27]: 8 nM (active)
EC50 [28]: 15 nM (active)
IC50 [3]: 2.15 µM (active)
IC50 (cells [4]): > 67.5 µM (inactive)
IC50 [29]: 7.7 nM (active)
EC50 [30]: < 100 nM (active)
